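Briefly, cells in 96-well plates were exposed to five compound concentrations for 48 h, and endpoints were estimated by linear interpolation. TGI denotes the concentration required for complete inhibition of growth.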
Key:
Test in all cases: DTP human tumour cell line panel, 48 h
M14 melanoma = test system: M14 melanoma
U251 CNS = test system: U251 CNS
HS 578T breast = test system: HS 578T breast
OVCAR-4 ovarian = test system: OVCAR-4 ovarian
MDA-MB-231 breast = test system: MDA-MB-231 breast
UACC-62 melanoma = test system: UACC-62 melanoma
UACC-257 melanoma = test system: UACC-257 melanoma
SK-MEL-5 melanoma = test system: SK-MEL-5 melanoma
NCI/ADR-RES ovarian = test system: NCI/ADR-RES ovarian
RPMI-8226 leukemia = test system: RPMI-8226 leukemia
ACHN renal = test system: ACHN renal
EKVX NSCLC = test system: EKVX NSCLC
CAKI-1 renal = test system: CAKI-1 renal
HOP-62 NSCLC = test system: HOP-62 NSCLC
K-562 leukemia = test system: K-562 leukemia
NCI-H522 lung = test system: NCI-H522 lung
HCC-2998 colon = test system: HCC-2998 colon
SK-MEL-28 melanoma = test system: SK-MEL-28 melanoma
UO-31 renal = test system: UO-31 renal
IGROV1 ovarian = test system: IGROV1 ovarian
SW-620 colon = test system: SW-620 colon
NCI-H460 lung = test system: NCI-H460 lung
SNB-19 CNS = test system: SNB-19 CNS
MDA-MB-435 = test system: MDA-MB-435
DU-145 prostate = test system: DU-145 prostate
RXF 393 renal = test system: RXF 393 renal
A498 renal = test system: A498 renal
TK-10 renal = test system: TK-10 renal
BT-549 breast = test system: BT-549 breast
HOP-92 NSCLC = test system: HOP-92 NSCLC
SF-539 CNS = test system: SF-539 CNS
MCF7 breast = test system: MCF7 breast
LOX IMVI melanoma = test system: LOX IMVI melanoma
HCT-116 colon = test system: HCT-116 colon
HL-60(TB) leukemia = test system: HL-60(TB) leukemia
786-0 renal = test system: 786-0 renal
OVCAR-5 ovarian = test system: OVCAR-5 ovarian
HT29 colon = test system: HT29 colon
NCI-H226 lung = test system: NCI-H226 lung
NCI-H23 lung = test system: NCI-H23 lung
OVCAR-8 ovarian = test system: OVCAR-8 ovarian
SK-MEL-2 melanoma = test system: SK-MEL-2 melanoma
KM12 colon = test system: KM12 colon
COLO 205 colon = test system: COLO 205 colon
MALME-3M melanoma = test system: MALME-3M melanoma
T-47D breast = test system: T-47D breast
SF-295 CNS = test system: SF-295 CNS
SK-OV-3 ovarian = test system: SK-OV-3 ovarian
SNB-75 CNS = test system: SNB-75 CNS
SR leukemia = test system: SR leukemia
PC-3 prostate = test system: PC-3 prostate
OVCAR-3 ovarian = test system: OVCAR-3 ovarian
HCT-15 colon = test system: HCT-15 colon
A549 NSCLC = test system: A549 NSCLC
SF-268 CNS = test system: SF-268 CNS

## CO[C@H]1[C@@H](O)[C@@H](C)O[C@@H](O[C@H]2CC[C@@]3(C)[C@H](CC[C@@H]4[C@@H]3CC[C@]3(C)[C@@H](C5=CC(=O)OC5)[C@@H](OC(C)=O)C[C@]43O)C2)[C@@H]1O
M14 melanoma
  TGI: 189 nM
U251 CNS
  TGI: 186 nM
HS 578T breast
  TGI: 124 nM
OVCAR-4 ovarian
  TGI: 127 nM
MDA-MB-231 breast
  TGI: 972 nM
UACC-62 melanoma
  TGI: 215 nM
UACC-257 melanoma
  TGI: 239 nM
SK-MEL-5 melanoma
  TGI: 201 nM
NCI/ADR-RES ovarian
  TGI: 175 nM
RPMI-8226 leukemia
  TGI: > 16200 nM
ACHN renal
  TGI: 57.5 nM
EKVX NSCLC
  TGI: 56.8 nM
CAKI-1 renal
  TGI: 71.9 nM
HOP-62 NSCLC
  TGI: 87.8 nM
K-562 leukemia
  TGI: 756 nM
NCI-H522 lung
  TGI: 36.8 nM
HCC-2998 colon
  TGI: 824 nM
SK-MEL-28 melanoma
  TGI: > 50000 nM
UO-31 renal
  TGI: 68.6 nM
IGROV1 ovarian
  TGI: 772 nM
SW-620 colon
  TGI: > 50000 nM
NCI-H460 lung
  TGI: 61.7 nM
SNB-19 CNS
  TGI: 507 nM
MDA-MB-435
  TGI: 407 nM
DU-145 prostate
  TGI: 58.9 nM
RXF 393 renal
  TGI: 52.3 nM
A498 renal
  TGI: 1270 nM
TK-10 renal
  TGI: 52 nM
BT-549 breast
  TGI: 161 nM
HOP-92 NSCLC
  TGI: 577 nM
SF-539 CNS
  TGI: 91 nM
MCF7 breast
  TGI: > 50000 nM
LOX IMVI melanoma
  TGI: 194 nM
HCT-116 colon
  TGI: 109 nM
HL-60(TB) leukemia
  TGI: 332 nM
786-0 renal
  TGI: 67 nM
OVCAR-5 ovarian
  TGI: 214 nM
HT29 colon
  TGI: 209 nM
NCI-H226 lung
  TGI: 411 nM
NCI-H23 lung
  TGI: 139 nM
OVCAR-8 ovarian
  TGI: 152 nM
SK-MEL-2 melanoma
  TGI: 345 nM
KM12 colon
  TGI: 592 nM
COLO 205 colon
  TGI: 447 nM
MALME-3M melanoma
  TGI: 44.5 nM
T-47D breast
  TGI: 435 nM
SF-295 CNS
  TGI: 550 nM
SK-OV-3 ovarian
  TGI: 188 nM
SNB-75 CNS
  TGI: 332 nM
SR leukemia
  TGI: > 50000 nM
PC-3 prostate
  TGI: 113 nM
OVCAR-3 ovarian
  TGI: 90.5 nM
HCT-15 colon
  TGI: 292 nM
A549 NSCLC
  TGI: 24.1 nM
SF-268 CNS
  TGI: 85.5 nM
